Results published in patent US9890146B2, “Compound having selective EP2 agonist activity” (ONO PHARMACEUTICAL CO., LTD., priority 2014, dated 2018).

Target: T1, human EP2 (Homo sapiens, UniProt P43116)
T1 construct: expressed in transfected cells; host or cells: CHO cells (EP2-CHO)
Assay: Measurement of EP2 agonist activity (measurement of cAMP concentration)
Type: cell-based
Conditions: EP2-CHO cells, cAMP production (HTRF), reaction 30 minutes at room temperature; read-out: EP2 agonist activity EC50
Protocol: Using Chem1 cells or CHO cells in which various prostanoid receptors were forcibly expressed, respectively, agonist activities of test compounds on various prostanoid receptors was determined employing, as a measure, an intracellular cyclic AMP (hereinbelow, abbreviated as “cAMP”) production amount or an intracellular calcium concentration.
The test compound and a control substance (PGE2 and PGF2α) were dissolved in dimethyl sulfoxide (DMSO) to prepare a 10 mmol/L solution. The 10 mmol/L solution thus prepared was thawed upon use, then serially diluted with DMSO, and then diluted with a buffer solution for measurement use or a buffer solution for measurement use 2, and then the resulting solution was subjected to an experiment.
Cells forcibly expressing various prostanoid receptors were standing-cultured at 37° C. in the presence of 5% CO2 using a DMEM medium (Sigma) (for culturing FP-Chem1) containing inactivated (56° C., 30 minutes) 9.8 vol % nondialysed-FBS (Life Technologies), 1 vol % Non Essential Amino Acids (Life Technologies), 10 mmol/L HEPES Buffer Solution (Life Technologies), 0.5 vol % GENETICIN (Life Technologies) and 1% penicillin-streptomycin (Life Technologies) or an α-MEM medium (Sigma) (for culturing EP2-CHO) containing inactivated (56° C., 30 minutes) 9.8 vol % dialysed-FBS (Life Technologies) and penicillin-streptomycin-glutamine (Life Technologies). Subculturing was carried out by the following manner.
The medium was removed, and washed with a phosphate-buffered physiological saline not containing Ca^2+ and Mg^2+ one time. A proper amount of trypsin-EDTA (Life Technologies) was added, and this was incubated at room temperature, cells were peeled, and a medium having a volume which is 10-fold a volume of trypsin-EDTA was added to stop an enzymatic reaction. After cells were recovered into a centrifuging tube, and centrifuged at room temperature for 3 minutes at 120 g, the supernatant was removed. Cells were suspended in a proper amount of a medium, and seeded in a culturing flask.
On the measurement day, a medium was removed, and EP2-CHO was washed with a phosphate-buffered physiological saline containing 2 mmol/L EDTA and not containing Ca^2+ and Mg^2+ one time. A proper amount of the phosphate-buffered physiological saline containing 2 mmol/L EDTA and not containing Ca^2+ and Mg^2+ was added, this was incubated at 37° C. in the presence of 5% CO2, cells were peeled, cells were recovered into a centrifuging tube, and centrifuged at room temperature for 3 minutes at 550 g, and the supernatant was removed. Cells were suspended in a proper amount of a buffer solution for measurement 1 (MEM medium (Invitrogen) containing 1.0 w/v % bovine serum albumin (Sigma) and 2 μmol/L diclofenac (Sigma)), and centrifuged at room temperature for 3 minutes at 200 g, and the supernatant was removed. Cells were suspended in a buffer solution for measurement 2 (MEM medium (Invitrogen) containing 1.0 w/v % bovine serum albumin (Sigma), 2 μmol/L diclofenac (Sigma) and 1 mmol/L 3-isobutyl-1-methylxanthine), and each 25 μL of the suspension was dispensed into a 96-well ½ area plate so that the cell number per well became […]. A buffer solution for measurement 2 (25 μL) containing an agonist at a variety of concentrations was added to carry out a reaction at room temperature for 30 minutes. Measurement of a cAMP concentration was carried out using the cAMP HTRF HiRange kit (CIS bio International). According to the two step protocol of the kit manual, each 25 μL of cAMP-D2 and Cryptase diluted with a lysis buffer were added, and this was incubated at room temperature for 1 hour. After incubation for 1 hour, time resolution fluorescence at 620 nm and 660 nm when excited at 340 nm was measured using SpectraMax M5e (Molecular Device), and a ratio (TRF ratio) was obtained, thereby, a cAMP concentration was calculated from a calibration line. […]

T1 sequence (P43116 whole entry): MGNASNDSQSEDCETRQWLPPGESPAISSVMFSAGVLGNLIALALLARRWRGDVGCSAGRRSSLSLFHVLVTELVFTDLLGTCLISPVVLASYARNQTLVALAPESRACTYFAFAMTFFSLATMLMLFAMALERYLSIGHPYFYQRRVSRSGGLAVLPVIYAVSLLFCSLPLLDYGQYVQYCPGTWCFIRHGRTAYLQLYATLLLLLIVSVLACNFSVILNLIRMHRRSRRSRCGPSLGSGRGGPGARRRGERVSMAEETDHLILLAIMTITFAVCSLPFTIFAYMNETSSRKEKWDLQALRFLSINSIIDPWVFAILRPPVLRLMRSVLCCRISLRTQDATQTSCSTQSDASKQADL

Structure (SMILES)	EC50 [nM]
O=C(O)c1csc([C@H]2CC[C@@H]3[C@@H](COc4ccc5c(c4)CCC5)[C@H](O)C[C@@H]3O2)n1 [1(6), 2-{(2R,4aR,5S,6R,7aS)-5-[(2,3-dihydro-1H-inden-5-yloxy)methyl]-6-hydroxyoctahydrocyclopenta[b]pyran-2-yl}-1,3-thiazole-4-carboxylic acid]	7.5
Cc1ccc(OC[C@@H]2[C@H]3CC[C@H](c4nc(C(=O)O)cs4)O[C@H]3C[C@H]2O)cc1C [1(7), 2-{(2R,4aR,5S,6R,7aS)-5-[(3,4-dimethylphenoxy)methyl]-6-hydroxyoctahydrocyclopenta[b]pyran-2-yl}-1,3-thiazole-4-carboxylic acid]	3.3
O=C(O)c1csc([C@H]2CC[C@@H]3[C@@H](COc4ccc5[nH]ccc5c4)[C@H](O)C[C@@H]3O2)n1 [1(12), 2-{(2R,4aR,5S,6R,7aS)-6-hydroxy-5-[(1H-indol-5-yloxy)methyl]octahydrocyclopenta[b]pyran-2-yl}-1,3-thiazole-4-carboxylic acid]	19
O=C(O)c1csc([C@H]2CC[C@@H]3[C@@H](COc4ccc5c(c4)CC5)[C@H](O)C[C@@H]3O2)n1 [1(15), 2-{(2R,4aR,5S,6R,7aS)-5-[(bicyclo[4.2.0]octa-1,3,5-trien-3-yloxy)methyl]-6-hydroxyoctahydrocyclopenta[b]pyran-2-yl}-1,3-thiazole-4-carboxylic acid]	14
O=C(O)c1csc([C@H]2CC[C@@H]3[C@@H](COc4ccc5ccoc5c4)[C@H](O)C[C@@H]3O2)n1 [1(16), 2-{(2R,4aR,5S,6R,7aS)-5-[(1-benzofuran-6-yloxy)methyl]-6-hydroxyoctahydrocyclopenta[b]pyran-2-yl}-1,3-thiazole-4-carboxylic acid]	5.5
O=C(O)c1csc([C@H]2CC[C@@H]3[C@@H](COc4ccc5c(c4F)CCC5)[C@H](O)C[C@@H]3O2)n1 [1(19), 2-[(2R,4aR,5S,6R,7aS)-5-{[(4-fluoro-2,3-dihydro-1H-inden-5-yl)oxy]methyl}-6-hydroxyoctahydrocyclopenta[b]pyran-2-yl]-1,3-thiazole-4-carboxylic acid]	2.4
O=C(O)c1csc([C@H]2CC[C@@H]3[C@@H](COc4ccc(Cl)c(C5CC5)c4)[C@H](O)C[C@@H]3O2)n1 [1(22), 2-{(2R,4aR,5S,6R,7aS)-5-[(4-chloro-3-cyclopropylphenoxy)methyl]-6-hydroxyoctahydrocyclopenta[b]pyran-2-yl}-1,3-thiazole-4-carboxylic acid]	2.3
O=C(O)c1csc([C@H]2CC[C@@H]3[C@@H](COc4ccccc4)[C@H](O)C[C@@H]3O2)n1 [1(27), 2-[(2R,4aR,5S,6R,7aS)-6-hydroxy-5-(phenoxymethyl)octahydrocyclopenta[b]pyran-2-yl]-1,3-thiazole-4-carboxylic acid]	12
O=C(O)c1csc([C@H]2CC[C@@H]3[C@@H](COc4ccc5c(c4)CCCC5)[C@@H](O)C[C@@H]3O2)n1 [9(12), 2-{(2R,4aR,5S,6S,7aS)-6-hydroxy-5-[(5,6,7,8-tetrahydro-2-naphthalenyloxy)methyl]octahydrocyclopenta[b]pyran-2-yl}-1,3-thiazole-4-carboxylic acid]	6.4
CCc1ccc(OC[C@@H]2[C@H]3CC[C@H](c4nc(C(=O)O)cs4)O[C@H]3C[C@@H]2O)cc1C1CC1 [9(35), 2-{(2R,4aR,5S,6S,7aS)-5-[(3-cyclopropyl-4-ethylphenoxy)methyl]-6-hydroxyoctahydrocyclopenta[b]pyran-2-yl}-1,3-thiazole-4-carboxylic acid]	2.4
CCc1ccc(OC[C@@H]2[C@H]3CC[C@H](c4nc(C(=O)O)cs4)O[C@H]3C[C@@H]2O)cc1C1CCC1 [9(36), 2-{(2R,4aR,5S,6S,7aS)-5-[(3-cyclobutyl-4-ethylphenoxy)methyl]-6-hydroxyoctahydrocyclopenta[b]pyran-2-yl}-1,3-thiazole-4-carboxylic acid]	3.5

Now those with a lower EC50, led by results:

EC50 [nM]	Structure (SMILES)
0.5	Cc1cc(OC[C@@H]2[C@H]3CC[C@H](c4nc(C(=O)O)cs4)O[C@H]3C[C@H]2O)ccc1[N+](=O)[O-] [1(4), 2-{(2R,4aR,5S,6R,7aS)-6-hydroxy-5-[(3-methyl-4-nitrophenoxy)methyl]octahydrocyclopenta[b]pyran-2-yl}-1,3-thiazole-4-carboxylic acid]
0.9	Cc1cc(OC[C@@H]2[C@H]3CC[C@H](c4nc(C(=O)O)cs4)O[C@H]3C[C@H]2O)ccc1Cl [1(5), 2-{(2R,4aR,5S,6R,7aS)-5-[(4-chloro-3-methylphenoxy)methyl]-6-hydroxyoctahydrocyclopenta[b]pyran-2-yl}-1,3-thiazole-4-carboxylic acid]
1.1	O=C(O)c1csc([C@H]2CC[C@@H]3[C@@H](COc4cccc5c4CCC5)[C@H](O)C[C@@H]3O2)n1 [1(13), 2-{(2R,4aR,5S,6R,7aS)-5-[(2,3-dihydro-1H-inden-4-yloxy)methyl]-6-hydroxyoctahydrocyclopenta[b]pyran-2-yl}-1,3-thiazole-4-carboxylic acid]
0.82	CCc1cc(OC[C@@H]2[C@H]3CC[C@H](c4nc(C(=O)O)cs4)O[C@H]3C[C@H]2O)ccc1C [1(17), 2-{(2R,4aR,5S,6R,7aS)-5-[(3-ethyl-4-methylphenoxy)methyl]-6-hydroxyoctahydrocyclopenta[b]pyran-2-yl}-1,3-thiazole-4-carboxylic acid]
0.86	O=C(O)c1csc([C@H]2CC[C@@H]3[C@@H](COc4ccc5c(c4)CCC5)[C@@H](O)C[C@@H]3O2)n1 [9(1), 2-{(2R,4aR,5S,6S,7aS)-5-[(2,3-dihydro-1H-inden-5-yloxy)methyl]-6-hydroxyoctahydrocyclopenta[b]pyran-2-yl}-1,3-thiazole-4-carboxylic acid]
0.16	Cc1ccc(OC[C@@H]2[C@H]3CC[C@H](c4nc(C(=O)O)cs4)O[C@H]3C[C@@H]2O)cc1Cl [9(3), 2-{(2R,4aR,5S,6S,7aS)-5-[(3-chloro-4-methylphenoxy)methyl]-6-hydroxyoctahydrocyclopenta[b]pyran-2-yl}-1,3-thiazole-4-carboxylic acid]
0.33	CCc1cc(OC[C@@H]2[C@H]3CC[C@H](c4nc(C(=O)O)cs4)O[C@H]3C[C@@H]2O)ccc1C [9(4), 2-{(2R,4aR,5S,6S,7aS)-5-[(3-ethyl-4-methylphenoxy)methyl]-6-hydroxyoctahydrocyclopenta[b]pyran-2-yl}-1,3-thiazole-4-carboxylic acid]
0.91	O=C(O)c1csc([C@H]2CC[C@@H]3[C@@H](COc4ccc5c(c4F)CCC5)[C@@H](O)C[C@@H]3O2)n1 [9(5), 2-[(2R,4aR,5S,6S,7aS)-5-{[(4-fluoro-2,3-dihydro-1H-inden-5-yl)oxy]methyl}-6-hydroxyoctahydrocyclopenta[b]pyran-2-yl]-1,3-thiazole-4-carboxylic acid]
1.6	CCc1ccc(OC[C@@H]2[C@H]3CC[C@H](c4nc(C(=O)O)cs4)O[C@H]3C[C@@H]2O)cc1CC [9(23), 2-{(2R,4aR,5S,6S,7aS)-5-[(3,4-diethylphenoxy)methyl]-6-hydroxyoctahydrocyclopenta[b]pyran-2-yl}-1,3-thiazole-4-carboxylic acid]
0.074	CSc1cc(OC[C@@H]2[C@H]3CC[C@H](c4nc(C(=O)O)cs4)O[C@H]3C[C@@H]2O)ccc1C [9(25)]
1.6	O=C(O)c1csc([C@H]2CC[C@@H]3[C@@H](COc4ccc5c(c4)CCCCC5)[C@@H](O)C[C@@H]3O2)n1 [9(33)]
